Tests used:
[1] = system: rats; assay: spontaneous locomotor activity; type: in vivo; settings: rat
Protocol: Spontaneous locomotor activity can be measured to determine sedative effects of compounds. Locomotor activity is measured in eight computerized Digiscan-16 Animal Activity Monitors (Omnitech Electronics, Columbus, Ohio) equipped with 48 infrared photocell emitters and detectors. Each box is constructed of Plexiglas sides and floor. Horizontal activity is detected by a set of horizontal sensors on the front to back walls and a second group of sensors on the side to side walls located 5 cm above the cage floor. Vertical activity is detected by a third set of sensors on the side to side walls located 13.5 cm above the cage floor. The rats are tested in the presence of white noise (62 dB) and red St light (60 watt).
Test compound is administered IV in a 50% PEG vehicle 5 minutes prior to the test session. A range of compound doses is typically used and 6 to 8 rats are tested at each dose. The animal's movement time, vertical activity, and total distance traveled are tracked over a 15 minute test session. A sedative, or hypnotic, effect in the spontaneous locomotor activity model is defined by a decrease in any two of these three measures relative to animals given vehicle alone.

[2] = system: rats; assay: elevated plus maze; type: in vivo; settings: rat, IV, statistically significant response (anxiolytic effect)
Protocol: The elevated plus maze model capitalizes on rats' innate fear of open, elevated places. The test apparatus is an elevated plus maze consisting of two open arms and two closed arms. A rat will naturally chose to spend more time on the closed arms of the maze than on the open arms but that if an efficacious anxiolytic compound is administered to the rat prior to the test the amount it of time the rat spends in the open arms is increased.
Test compound is administered IV in a 50% PEG (polyethylene glycol) vehicle 5 minutes prior to the test session. A range of compound doses is typically used and 8-10 rats are tested at each dose. The rat is placed in the center of the maze facing one of the open arms. The animal's locomotion is tracked over a five minute test session using photocells interfaced to a computer. The computer measures the number of entries into each arm and the time spent on each arm. An anxiolytic effect in the elevated plus maze model is defined by an increase in the percentage of time spent on the open arms in compound versus vehicle treated animals.

[3] = biological target: GABAA receptors (benzodiazepine site, Ro15-1788 binding sites), rat cortex; assay: Ro15-1788 competition binding assay, rat cortex membranes; settings: displacement of 3H Ro15-1788, read-out: Ro15-1788 binding, K1
Protocol: Rat cortex membranes are prepared by homogenizing one or two previously frozen rat cortexes in 30 ml of 25 mM Tris Buffer, pH 7.4. The homogenate is centrifuged for 10 minutes at 500× g. The supernatant is then transferred to a clean centrifuge tube and the pellet discarded. The supernatant is spun for 20 minutes at 48,000× g. The supernatant from this spin is discarded and the pellet is resuspended in 30 ml of 25 mM Tris Buffer, pH 7.4 and centrifuged for an additional 10 minutes at 48,000× g. The supernatant from the final spin is discarded and the membrane pellet is resuspended in 100 mL Tris buffer per gram of cortex used.
The cortex membrane preparation is used to perform either percent inhibition or competition binding assays. In order to determine percent inhibition 300 μl of resuspended membranes are mixed with 200 μl ^3H labeled Ro15-1788 (final concentration 2.5 nM) and incubated for 1 hour on ice in the presence of 2 μl test compound in DMSO (final concentration 4 μM). Membranes are harvested onto untreated filtermats. The filtermats are dried and the ^3H Ro15-1788 signal is counted in a scintillation counter. Nonspecific binding is determined by displacement of ^3H Ro15-1788 with 10 μM Diazepam (RBI) or any other compound known to bind tightly at the benzodiazepine site.
K1 values are calculated according to the Cheng-Prussof equation.

[4] = biological target: α2β3γ2 GABAA subtype receptor (Homo sapiens, UniProt P18507+P47869); assay: oocyte electrophysiology, two electrode voltage-clamp, potentiation of GABA current; type: cell-based; settings: Xenopus oocytes, human subunits, GABA EC10
Protocol: (§1) Assays are carried out as described previously in White and Gurley, 1995 and White, et al., 1995. Xenopus laevis oocytes are enzymatically isolated and injected with non-polyadenylated cRNA for human derived α, β and γ GABAA subunits, respectively. In more preferred embodiments cRNA for the α1β2γ2, α2β3γ2, α3β3γ2, and α5β3γ2 subunit combinations are injected. Only one of these subunit combinations is injected per cell. For each subunit combination, sufficient message is injected to result in current amplitudes of >10 nA when 1 μM GABA is applied. Electrophysiological recordings are carried out using the two electrode voltage-clamp technique at a membrane holding potential of −70 mV.
(§2) Compounds are evaluated against a GABA concentration that evokes <10% (EC10) of the maximal evocable GABA current. Each oocyte is exposed to increasing concentrations of compound in order to evaluate a concentration/effect relationship.
(§3) Specificity of a compound for the Ro15-1788 site is determined following completion of the concentration/effect curve. After washing the oocyte sufficiently to remove previously applied compound, the oocyte is exposed to GABA and 1 μM Ro15-1788, followed by exposure to GABA, 1 μM Ro15-1788, and compound. Percent change due to addition of compound is calculated as described above. Any percent change observed in the presence of Ro15-1788 is subtracted from the percent changes in current amplitude observed in the absence of 1 μM Ro15-1788. These net values are used for the calculation of average activity and EC50 values.
(§4) To evaluate average activity and EC50 values, the concentration/effect data are averaged across cells and fit to the logistic equation. Average values are reported as mean ±standard error.

[5] = biological target: α5β3γ2 GABAA subtype receptor (Homo sapiens, UniProt P18507+P31644); assay: as above; type: cell-based; settings: Xenopus oocytes, human subunits, GABA EC10; for Emax: read-out: oocyte electrophysiology maximum potentiation (%) α5β3γ2
Protocol: as §1, §2, §3, §4

[6] = biological target: α1β2γ2 GABAA subtype receptor (Homo sapiens, UniProt P14867+P18507); assay: as above; type: cell-based; settings: Xenopus oocytes, human subunits, GABA EC10; for Emax: read-out: oocyte electrophysiology maximum potentiation (%) α1β2γ2
Protocol: as §1, §2, §3, §4

[7] = biological target: α3β3γ2 GABAA subtype receptor (Homo sapiens, UniProt P18507+P34903); assay: as above; type: cell-based; settings: Xenopus oocytes, human subunits, GABA EC10
Protocol: as §1, §2, §3, §4

[8] = system: rats; assay: Porsolt forced swim test; type: in vivo; settings: rat, administered IV, statistically significant response
From the text: The effects measured in this model have been correlated to antidepressant efficacy for drugs. The paradigm of this model is that an effective antidepressant compound will cause a rat to make greater attempts to escape a water-filled cylinder than a rat given vehicle only.
Animals used in this study were non-naive male Sprague Dawley Rats (SASCO, St. Louis) weighing between 280-350 grams. The test apparatus consists of 6 clear Plexiglas cylinders 40 cm high×19 cm wide. Cylinders are filled to 18 cm with 25° C. water. Each rat is placed in a cylinder for a 15 minute training session. Following either subchronic or acute dosing of either vehicle (0.5% methylcellulose) of compound, animals are brought back 24 hours later for a 5 minute test session. These test session is videotaped for later scoring.
Subchronic dosing consists of administering drug three times in the 24-hour period between training and testing. The drug is administered 24 hrs., 5 hrs., and 1 hr. prior to the test session. Acute dosing consists of administering the drug once, 1 hour prior to the test session. Scoring is done using a time-sampling computer program written in Visual Basic and run in DOS. […] These sampling score are then converted into percentages of the test session.

[9] = system: rats; assay: step-down passive avoidance; type: in vivo; settings: rat; for cognitive model (step-down passive avoidance), minimal efficacious dose: cognitive enhancement
From the text: In step-down passive avoidance a rat is placed on a platform located in the center of an electrified grid floor that is contained within a large (45 cm×45 cm×50 cm) white translucent Plexiglas® enclosure. The natural inclination of the rat is to step off the platform and investigate its surroundings. […] Each time the animal steps off the platform it receives a mild foot shock of 2 mAmps×6 sec. Following each shock the animal is removed from the box, placed in its cage for a one minute inter-trial interval, and then returned to the platform. The latency to step down on each trial, the number of trials taken to reach criterion during training and the retention latency are collected.
Testing is conducted approximately 24 hrs. after training. Drug-free animals are placed on the platform in the box in which they will have been trained and the latency to step down onto the grid floor is recorded for one trial as a measure of memory retention.

[10] = IV, sedation as side effect (Tables V and IX)
[11] = IV, hypnotic effect (Table VII)

α1β2γ2 GABAA subtype receptor, sequence (P14867 28-456): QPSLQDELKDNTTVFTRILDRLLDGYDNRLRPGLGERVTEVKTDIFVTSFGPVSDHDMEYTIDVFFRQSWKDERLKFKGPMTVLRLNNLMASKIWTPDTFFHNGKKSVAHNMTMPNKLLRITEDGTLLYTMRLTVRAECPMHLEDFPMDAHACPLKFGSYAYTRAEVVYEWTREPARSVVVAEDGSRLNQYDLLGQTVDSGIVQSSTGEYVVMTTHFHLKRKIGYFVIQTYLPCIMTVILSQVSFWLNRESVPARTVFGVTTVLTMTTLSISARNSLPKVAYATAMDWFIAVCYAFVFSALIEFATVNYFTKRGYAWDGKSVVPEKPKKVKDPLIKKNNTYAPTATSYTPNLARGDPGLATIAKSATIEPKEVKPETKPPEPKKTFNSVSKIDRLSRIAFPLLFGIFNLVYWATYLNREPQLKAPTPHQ
α1β2γ2 GABAA subtype receptor, sequence (P47870 25-512 partner limits assumed): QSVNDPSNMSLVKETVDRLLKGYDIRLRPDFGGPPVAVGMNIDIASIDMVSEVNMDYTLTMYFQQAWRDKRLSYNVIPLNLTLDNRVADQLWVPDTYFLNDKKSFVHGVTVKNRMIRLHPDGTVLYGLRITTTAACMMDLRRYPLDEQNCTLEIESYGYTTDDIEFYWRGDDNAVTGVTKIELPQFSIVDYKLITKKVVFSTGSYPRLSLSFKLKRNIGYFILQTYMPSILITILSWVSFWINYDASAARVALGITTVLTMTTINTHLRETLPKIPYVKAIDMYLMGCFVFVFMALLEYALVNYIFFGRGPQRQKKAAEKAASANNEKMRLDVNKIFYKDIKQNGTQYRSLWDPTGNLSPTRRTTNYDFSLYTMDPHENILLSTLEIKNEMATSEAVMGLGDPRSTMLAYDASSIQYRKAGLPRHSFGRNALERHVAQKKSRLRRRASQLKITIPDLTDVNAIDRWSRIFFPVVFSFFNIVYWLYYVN
α1β2γ2 GABAA subtype receptor, sequence (P18507 40-475): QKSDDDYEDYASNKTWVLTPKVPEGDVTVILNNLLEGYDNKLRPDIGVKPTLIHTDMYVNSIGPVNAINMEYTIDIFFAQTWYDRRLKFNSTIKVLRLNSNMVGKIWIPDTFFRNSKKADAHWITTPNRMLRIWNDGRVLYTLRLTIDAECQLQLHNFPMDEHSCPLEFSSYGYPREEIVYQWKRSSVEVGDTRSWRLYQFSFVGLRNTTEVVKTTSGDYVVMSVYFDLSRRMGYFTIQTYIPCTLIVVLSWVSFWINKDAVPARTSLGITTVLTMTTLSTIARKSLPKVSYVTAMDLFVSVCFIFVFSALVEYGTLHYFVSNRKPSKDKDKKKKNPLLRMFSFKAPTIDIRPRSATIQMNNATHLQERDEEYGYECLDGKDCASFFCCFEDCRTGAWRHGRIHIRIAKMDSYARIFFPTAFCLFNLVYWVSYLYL
α5β3γ2 GABAA subtype receptor, sequence (P31644 32-462): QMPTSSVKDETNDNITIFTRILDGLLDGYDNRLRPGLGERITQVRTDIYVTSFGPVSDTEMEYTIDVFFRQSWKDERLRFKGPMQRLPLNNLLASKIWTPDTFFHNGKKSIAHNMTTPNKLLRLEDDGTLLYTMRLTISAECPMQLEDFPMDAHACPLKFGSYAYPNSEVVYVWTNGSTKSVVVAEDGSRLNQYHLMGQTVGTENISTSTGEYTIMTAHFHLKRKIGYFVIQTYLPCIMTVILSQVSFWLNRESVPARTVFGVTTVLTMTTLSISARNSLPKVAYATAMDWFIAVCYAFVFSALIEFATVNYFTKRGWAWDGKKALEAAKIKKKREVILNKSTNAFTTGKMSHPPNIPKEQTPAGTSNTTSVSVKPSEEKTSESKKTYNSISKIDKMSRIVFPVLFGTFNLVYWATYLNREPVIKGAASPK
α5β3γ2 GABAA subtype receptor, sequence (P28472 26-473 partner): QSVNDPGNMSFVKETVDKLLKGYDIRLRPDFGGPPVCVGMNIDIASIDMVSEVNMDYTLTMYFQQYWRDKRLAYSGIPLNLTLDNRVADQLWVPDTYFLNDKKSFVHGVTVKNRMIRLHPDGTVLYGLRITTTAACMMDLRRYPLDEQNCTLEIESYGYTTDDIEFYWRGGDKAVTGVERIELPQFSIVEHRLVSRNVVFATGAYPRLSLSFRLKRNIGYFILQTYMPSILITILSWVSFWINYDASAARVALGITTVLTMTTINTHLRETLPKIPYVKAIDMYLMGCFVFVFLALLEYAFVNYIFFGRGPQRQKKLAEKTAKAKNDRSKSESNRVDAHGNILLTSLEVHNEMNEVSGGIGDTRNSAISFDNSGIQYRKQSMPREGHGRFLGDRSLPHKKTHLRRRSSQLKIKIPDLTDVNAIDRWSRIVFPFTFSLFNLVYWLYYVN
α5β3γ2 GABAA subtype receptor, sequence (P18507 40-475): as the sequence (P18507 40-475) above
α2β3γ2 GABAA subtype receptor, sequence (P47869 29-451): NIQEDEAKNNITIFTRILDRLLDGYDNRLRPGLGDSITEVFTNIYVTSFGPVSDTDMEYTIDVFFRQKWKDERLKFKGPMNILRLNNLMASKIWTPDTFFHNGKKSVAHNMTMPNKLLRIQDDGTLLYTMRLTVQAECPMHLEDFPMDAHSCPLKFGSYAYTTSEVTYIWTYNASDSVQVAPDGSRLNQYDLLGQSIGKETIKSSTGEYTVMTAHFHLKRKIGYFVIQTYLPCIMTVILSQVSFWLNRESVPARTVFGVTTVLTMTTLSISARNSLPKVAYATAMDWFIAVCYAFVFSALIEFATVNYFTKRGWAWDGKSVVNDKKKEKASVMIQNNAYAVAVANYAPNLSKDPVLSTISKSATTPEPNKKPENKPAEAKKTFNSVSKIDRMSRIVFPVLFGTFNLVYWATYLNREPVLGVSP
α2β3γ2 GABAA subtype receptor, sequence (P28472 26-473 partner): as the sequence (P28472 26-473 partner) above
α2β3γ2 GABAA subtype receptor, sequence (P18507 40-475): as the sequence (P18507 40-475) above
α3β3γ2 GABAA subtype receptor, sequence (P34903 29-492): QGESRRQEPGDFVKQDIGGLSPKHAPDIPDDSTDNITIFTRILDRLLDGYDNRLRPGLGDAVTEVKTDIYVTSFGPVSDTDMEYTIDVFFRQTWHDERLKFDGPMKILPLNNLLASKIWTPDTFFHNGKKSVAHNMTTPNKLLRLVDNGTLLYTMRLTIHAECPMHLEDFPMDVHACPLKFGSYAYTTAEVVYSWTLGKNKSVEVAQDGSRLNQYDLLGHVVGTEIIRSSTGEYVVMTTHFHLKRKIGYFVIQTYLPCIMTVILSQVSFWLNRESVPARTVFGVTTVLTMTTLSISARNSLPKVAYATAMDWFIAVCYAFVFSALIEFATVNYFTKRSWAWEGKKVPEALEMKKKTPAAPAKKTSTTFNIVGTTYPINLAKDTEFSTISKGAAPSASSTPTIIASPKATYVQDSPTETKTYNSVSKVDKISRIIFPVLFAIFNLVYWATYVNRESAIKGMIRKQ
α3β3γ2 GABAA subtype receptor, sequence (P28472 26-473 partner): as the sequence (P28472 26-473 partner) above
α3β3γ2 GABAA subtype receptor, sequence (P18507 40-475): as the sequence (P18507 40-475) above

SMILES	elevated plus maze, minimal efficacious dose [2] [mg/kg]	Ki [3] [nM]	oocyte electrophysiology maximum potentiation (%) α2β3γ2 [4] [%]	oocyte electrophysiology maximum potentiation (%) α5β3γ2 [5] [%]	oocyte electrophysiology maximum potentiation (%) α1β2γ2 [6] [%]	oocyte electrophysiology maximum potentiation (%) α3β3γ2 [7] [%]	spontaneous locomotor activity, minimal efficacious dose [1, 11] [mg/kg]	Emax [5] [%]	other results
Cc1nnc2n1-c1ccc(Cl)cc1C(c1ccccc1)=NC2 [Alprazolam, reference compound]	0.0625	3.3	333	206	327	774	–	–	spontaneous locomotor activity, minimal efficacious dose [1, 10]: 0.125 mg/kg
CC(C)(C)OC(=O)c1ncn2c1C1CCCN1C(=O)c1c(Br)cccc1-2 (stereo not shown) [Ro16-6028, reference compound]	–	0.48	37	64	40	76	–	–	spontaneous locomotor activity, minimal efficacious dose [1, 10]: 0.06 mg/kg; Porsolt swim test, minimal efficacious dose [8]: 1 mg/kg; EC50 [4]: 5 nM; EC50 [5]: 3 nM; EC50 [6]: 3 nM; EC50 [7]: 5 nM
Cc1ccc(-c2nc3ccc(C)cn3c2CC(=O)N(C)C)cc1 [Zolpidem, reference compound]	–	48	350	–	263	882	0.25	–	step-down passive avoidance, minimal efficacious dose ([9]; IV, cognitive impairment side effect (Table VII)): 0.5 mg/kg
O=c1c(-c2ccccc2F)nc2c[nH]c3ccccc3n1-2 [compound 2]	0.5	10	40	–	18	39	–	-11	spontaneous locomotor activity, minimal efficacious dose ([1]; in vivo, iv, 15 min): 4 mg/kg
CNCc1ccc(NC(=O)c2c[nH]c3c2C(=O)CCCC3)cc1 [compound 4]	0.5	–	–	38	–	–	–	0	Porsolt swim test, minimal efficacious dose [8]: 20 mg/kg
O=C(Nc1cccc(F)c1)c1c[nH]c2c(c1=O)CCC2 [compound 5]	0.5	8.3	44	–	–	44	–	0	Emax [6]: 0%
COc1ccc(NC(=O)c2c[nH]c3c2C(=O)CC(C)(C)C3)c(F)c1 [compound 6]	–	11	72	42	25	95	0.25	–	step-down passive avoidance, minimal efficacious dose ([9]; in vivo, iv, 24 h): 4 mg/kg
O=c1[nH]c2c(n1-c1nc3ccc(F)c(F)c3o1)CCCCC2 [compound 7]	–	3	51	–	18	83	0.125	-23	–
CC1CC(=O)c2c(C(=O)Nc3ccc(F)cc3)c[nH]c2C1 (stereo not shown) [compound 8]	–	24	42	16	17	61	0.5	–	–
c1cc2c(cc1-c1ncc3[nH]c4c(c3n1)CCCC4)OCO2 [compound 9]	–	7.8	53	–	33	23	0.5	< 10	step-down passive avoidance, minimal efficacious dose ([9]; in vivo, iv, 24 h): 0.5 mg/kg
O=c1c2c[nH]c3ccccc3n-2c(=O)n1-c1ccc(F)cc1 [compound 10]	–	10	22	–	–	23	–	-27	cognitive model (step-down passive avoidance), minimal efficacious dose ([9]; IV): 0.25 mg/kg; Emax [6]: 0%
O=C(Nc1ccc(OCCO)cc1)c1c[nH]c2c1C(=O)CCC2 [compound 12]	–	5.4	63	–	15	82	–	-12	cognitive model (step-down passive avoidance), minimal efficacious dose ([9]; IV): 0.06 mg/kg

Source: patent publication US7060451B2, “Methods for screening GABA-modulatory compounds for specified pharmacological activities” (Neurogen Corporation, priority 1999, dated 2006)
